This passage reports EC50 results from US20250197376A1, “PYRAZINE AMIDE DERIVATIVES” (Novartis AG, priority 2022, published 2025).

The test system of this experiment is 3D7 P. falciparum strain. Kind of experiment: P. falciparum 3D7 parasite proliferation assay (SYBR Green). It counts as cell-based. The conditions noted are these: Plasmodium falciparum, Erythrocyte; 3D7 P. falciparum infected human erythrocytes, 72 hours, SYBR Green fluorescence; read-out: Pf3D7 Activity. As for the experimental part: The following assay illustrates the invention without in any way limiting the scope of the invention. This parasite proliferation assay measures the increase in parasite DNA content using a DNA intercalating dye, SYBR Green®. 3D7 P. falciparum strain is grown in complete culturing media until parasitemia reaches 3% to 8% with O+ human erythrocytes. 20 μl of screening media is dispensed into 384 well assay plates. 50 nl of compounds of the invention (in DMSO), including antimalarial controls (mefloquine, pyrimethamine and artemisinin), are then transferred into the assay plates, as well as DMSO alone to serve as a negative control for inhibition. Then 30 μl of a suspension of a 3D7 P. falciparum infected erythrocytes in screening media is dispensed into the assay plates such that the final hematocrit is 2.5% with a final parasitemia of 0.3%. The plates are placed in a 37° C. incubator for 72 hours in a low oxygen environment containing 93% N2, 4% CO2, and 3% O2 gas mixture. 10 μl of lysis buffer (saponin, triton-X, EDTA) containing a 10× solution of SYBR Green […] in RPMI media is dispensed into the plates. The plates are lidded and kept at room temperature overnight for the lysis of the infected red blood cells. The fluorescence intensity is measured (excitation […], emission 530 nm) using the Envision™ system (Perkin Elmer). The percentage inhibition of 50%, EC50, is calculated for each compound.

Consider `Cc1c(-c2cncc(C(=O)NCC(C)(C)N)n2)[nH]c2cc(OC(F)F)ccc12` [Example 69, N-(2-Amino-2-methylpropyl)-6-(6-(difluoromethoxy)-3-methyl-1H-indol-2-yl)pyrazine-2-carboxamide], for which the EC50 lay in the range of 10 to 100 nM.
As for `Cc1c(-c2cncc(C(=O)NCC(C)(C)N)n2)[nH]c2ccc(OC(F)F)cc12` [Example 70, N-(2-amino-2-methylpropyl)-6-(5-(difluoromethoxy)-3-methyl-1H-indol-2-yl)pyrazine-2-carboxamide], the EC50 is 10 to 100 nM.
As for `Cc1c(-c2cncc(C(=O)NCC(C)(C)N)n2)[nH]c2ccc(CN)cc12` [Example 71, N-(2-amino-2-methylpropyl)-6-(5-(aminomethyl)-3-methyl-1H-indol-2-yl)pyrazine-2-carboxamide], the figure is greater than 100 nM.
As for `CCOC(=O)c1cc2[nH]c(-c3cncc(C(=O)NCC(C)(C)N)n3)c(C)c2s1` [Example 72, Ethyl 5-(6-((2-amino-2-methylpropyl)carbamoyl)pyrazin-2-yl)-6-methyl-4H-thieno[3,2-b]pyrrole-2-carboxylate], the figure is less than 10 nM; as for `Cc1cc2[nH]c(-c3cncc(C(=O)NCC(C)(C)N)n3)c(C)c2s1` [Example 73, N-(2-amino-2-methylpropyl)-6-(2,6-dimethyl-4H-thieno[3,2-b]pyrrol-5-yl)pyrazine-2-carboxamide], 10 to 100 nM; as for `Cc1c(-c2cncc(C(=O)NCC(C)(C)N)n2)[nH]c2ccc(Br)cc12` [Example 74, N-(2-Amino-2-methylpropyl)-6-(5-bromo-3-methyl-1H-indol-2-yl)pyrazine-2-carboxamide], less than 10 nM.
Then `Cc1c(-c2cncc(C(=O)NCC(C)(C)N)n2)[nH]c2ccc(S(C)(=O)=O)cc12` [Example 75, N-(2-Amino-2-methylpropyl)-6-(3-methyl-5-(methylsulfonyl)-1H-indol-2-yl)pyrazine-2-carboxamide], with greater than 100 nM; and `Cc1c(-c2cncc(C(=O)NCC(C)(C)N)n2)[nH]c2c1CCC(C)(C)C2` [Example 76, N-(2-Amino-2-methylpropyl)-6-(3,6,6-trimethyl-4,5,6,7-tetrahydro-1H-indol-2-yl)pyrazine-2-carboxamide], with 10 to 100 nM.
As to `Cc1c(-c2cncc(C(=O)N[C@H]3CCC[C@@H]3N)n2)[nH]c2cc(Cl)c(F)cc12` [Example 77, N-((1S,2S)-2-Aminocyclopentyl)-6-(6-chloro-5-fluoro-3-methyl-1H-indol-2-yl)pyrazine-2-carboxamide], the EC50 was less than 10 nM.
Then `Cc1c(-c2cncc(C(=O)NCC(N)C3CC3)n2)[nH]c2cc(Cl)c(F)cc12` (centres unmarked) [Example 79, N-(2-amino-2-cyclopropylethyl)-6-(6-chloro-5-fluoro-3-methyl-1H-indol-2-yl)pyrazine-2-carboxamide], with 10 to 100 nM; and `Cc1c(-c2cncc(C(=O)NCC3(N)CCOCC3)n2)[nH]c2cc(Cl)c(F)cc12` [Example 80, N-((4-aminotetrahydro-2H-pyran-4-yl)methyl)-6-(6-chloro-5-fluoro-3-methyl-1H-indol-2-yl)pyrazine-2-carboxamide], with 10 to 100 nM; and `Cc1c(-c2cncc(C(=O)NCC3(N)CC3)n2)[nH]c2cc(Cl)c(F)cc12` [Example 81, N-((1-aminocyclopropyl)methyl)-6-(6-chloro-5-fluoro-3-methyl-1H-indol-2-yl)pyrazine-2-carboxamide], with 10 to 100 nM.
Then `Cc1c(-c2cncc(C(=O)NCC3(N)CC(F)(F)C3)n2)[nH]c2cc(Cl)c(F)cc12` [Example 82, N-((1-amino-3,3-difluorocyclobutyl)methyl)-6-(6-chloro-5-fluoro-3-methyl-1H-indol-2-yl)pyrazine-2-carboxamide], with 10 to 100 nM.
Then `Cc1c(-c2cncc(C(=O)NCC(C)(C)N)n2)[nH]c2ccccc12` [Example 83, N-(2-amino-2-methylpropyl)-6-(3-methyl-1H-indol-2-yl)pyrazine-2-carboxamide], with 10 to 100 nM.
